# Reference: publication PMC10527387, “The Potential Mechanisms behind Loperamide-Induced Cardiac Arrhythmias Associated with Human Abuse and Extreme Overdose” (Biomolecules, 2023)
# Key:
# Cav1.2 (ICa, ICaL) = biological target: T1, Cav1.2 (ICa, ICaL) (Homo sapiens, UniProt Q13936); test: cell-based
# T1 construct: gene CACNA1C
# Nav1.5 (INa) = biological target: T2, Nav1.5 (INa) (Homo sapiens, UniProt Q14524); test: cell-based
# T2 construct: gene SCN5A
# T2 sequence (Q14524 whole entry): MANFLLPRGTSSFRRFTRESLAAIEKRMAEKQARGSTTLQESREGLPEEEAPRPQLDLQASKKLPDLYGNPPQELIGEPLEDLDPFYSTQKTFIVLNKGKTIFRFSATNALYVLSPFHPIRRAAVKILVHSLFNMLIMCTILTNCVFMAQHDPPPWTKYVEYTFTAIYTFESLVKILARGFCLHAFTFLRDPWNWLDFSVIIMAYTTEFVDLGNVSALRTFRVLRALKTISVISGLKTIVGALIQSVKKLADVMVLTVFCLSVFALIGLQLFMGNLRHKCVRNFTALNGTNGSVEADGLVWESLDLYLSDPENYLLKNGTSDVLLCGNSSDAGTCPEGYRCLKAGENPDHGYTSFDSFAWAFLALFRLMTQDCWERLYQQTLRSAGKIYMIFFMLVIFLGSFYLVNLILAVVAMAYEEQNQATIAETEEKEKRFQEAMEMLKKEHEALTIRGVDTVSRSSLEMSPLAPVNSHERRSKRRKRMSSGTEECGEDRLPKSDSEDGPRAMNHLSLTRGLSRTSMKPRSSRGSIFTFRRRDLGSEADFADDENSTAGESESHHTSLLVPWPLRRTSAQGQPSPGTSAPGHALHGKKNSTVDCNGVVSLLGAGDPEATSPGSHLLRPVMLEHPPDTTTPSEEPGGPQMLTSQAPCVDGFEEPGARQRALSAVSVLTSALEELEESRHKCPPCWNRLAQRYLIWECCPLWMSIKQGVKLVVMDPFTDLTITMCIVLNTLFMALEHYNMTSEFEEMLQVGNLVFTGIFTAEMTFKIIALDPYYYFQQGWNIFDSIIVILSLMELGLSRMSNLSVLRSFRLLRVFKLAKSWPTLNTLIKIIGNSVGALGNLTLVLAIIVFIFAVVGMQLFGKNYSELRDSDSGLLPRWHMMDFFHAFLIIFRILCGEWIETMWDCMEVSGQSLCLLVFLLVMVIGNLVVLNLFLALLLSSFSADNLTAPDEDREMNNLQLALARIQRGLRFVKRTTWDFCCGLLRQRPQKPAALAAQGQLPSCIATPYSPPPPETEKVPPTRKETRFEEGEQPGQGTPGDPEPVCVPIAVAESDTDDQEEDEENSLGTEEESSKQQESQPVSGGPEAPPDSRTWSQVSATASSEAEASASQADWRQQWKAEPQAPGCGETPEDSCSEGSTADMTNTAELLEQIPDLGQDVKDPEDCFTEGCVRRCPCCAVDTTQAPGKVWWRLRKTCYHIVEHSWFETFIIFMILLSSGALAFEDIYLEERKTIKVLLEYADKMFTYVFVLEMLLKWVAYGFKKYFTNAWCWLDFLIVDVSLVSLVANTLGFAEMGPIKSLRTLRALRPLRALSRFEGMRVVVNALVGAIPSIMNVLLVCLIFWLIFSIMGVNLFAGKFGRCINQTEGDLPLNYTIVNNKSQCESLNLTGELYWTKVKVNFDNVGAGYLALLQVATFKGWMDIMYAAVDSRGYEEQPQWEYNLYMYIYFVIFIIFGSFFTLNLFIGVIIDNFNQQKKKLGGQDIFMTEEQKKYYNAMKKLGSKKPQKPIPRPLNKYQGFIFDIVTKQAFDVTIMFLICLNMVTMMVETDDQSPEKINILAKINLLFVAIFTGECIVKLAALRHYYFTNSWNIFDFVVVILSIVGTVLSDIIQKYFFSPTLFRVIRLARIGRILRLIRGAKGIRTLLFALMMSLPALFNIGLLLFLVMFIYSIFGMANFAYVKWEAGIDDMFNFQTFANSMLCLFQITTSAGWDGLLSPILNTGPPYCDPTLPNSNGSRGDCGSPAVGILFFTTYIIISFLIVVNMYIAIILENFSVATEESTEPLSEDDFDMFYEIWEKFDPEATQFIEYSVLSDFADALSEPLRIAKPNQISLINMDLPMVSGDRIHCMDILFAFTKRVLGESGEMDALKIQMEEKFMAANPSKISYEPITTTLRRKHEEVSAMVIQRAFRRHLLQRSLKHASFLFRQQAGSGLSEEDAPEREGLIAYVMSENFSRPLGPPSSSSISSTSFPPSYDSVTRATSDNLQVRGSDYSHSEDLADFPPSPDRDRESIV
# T1 sequence (Q13936 whole entry): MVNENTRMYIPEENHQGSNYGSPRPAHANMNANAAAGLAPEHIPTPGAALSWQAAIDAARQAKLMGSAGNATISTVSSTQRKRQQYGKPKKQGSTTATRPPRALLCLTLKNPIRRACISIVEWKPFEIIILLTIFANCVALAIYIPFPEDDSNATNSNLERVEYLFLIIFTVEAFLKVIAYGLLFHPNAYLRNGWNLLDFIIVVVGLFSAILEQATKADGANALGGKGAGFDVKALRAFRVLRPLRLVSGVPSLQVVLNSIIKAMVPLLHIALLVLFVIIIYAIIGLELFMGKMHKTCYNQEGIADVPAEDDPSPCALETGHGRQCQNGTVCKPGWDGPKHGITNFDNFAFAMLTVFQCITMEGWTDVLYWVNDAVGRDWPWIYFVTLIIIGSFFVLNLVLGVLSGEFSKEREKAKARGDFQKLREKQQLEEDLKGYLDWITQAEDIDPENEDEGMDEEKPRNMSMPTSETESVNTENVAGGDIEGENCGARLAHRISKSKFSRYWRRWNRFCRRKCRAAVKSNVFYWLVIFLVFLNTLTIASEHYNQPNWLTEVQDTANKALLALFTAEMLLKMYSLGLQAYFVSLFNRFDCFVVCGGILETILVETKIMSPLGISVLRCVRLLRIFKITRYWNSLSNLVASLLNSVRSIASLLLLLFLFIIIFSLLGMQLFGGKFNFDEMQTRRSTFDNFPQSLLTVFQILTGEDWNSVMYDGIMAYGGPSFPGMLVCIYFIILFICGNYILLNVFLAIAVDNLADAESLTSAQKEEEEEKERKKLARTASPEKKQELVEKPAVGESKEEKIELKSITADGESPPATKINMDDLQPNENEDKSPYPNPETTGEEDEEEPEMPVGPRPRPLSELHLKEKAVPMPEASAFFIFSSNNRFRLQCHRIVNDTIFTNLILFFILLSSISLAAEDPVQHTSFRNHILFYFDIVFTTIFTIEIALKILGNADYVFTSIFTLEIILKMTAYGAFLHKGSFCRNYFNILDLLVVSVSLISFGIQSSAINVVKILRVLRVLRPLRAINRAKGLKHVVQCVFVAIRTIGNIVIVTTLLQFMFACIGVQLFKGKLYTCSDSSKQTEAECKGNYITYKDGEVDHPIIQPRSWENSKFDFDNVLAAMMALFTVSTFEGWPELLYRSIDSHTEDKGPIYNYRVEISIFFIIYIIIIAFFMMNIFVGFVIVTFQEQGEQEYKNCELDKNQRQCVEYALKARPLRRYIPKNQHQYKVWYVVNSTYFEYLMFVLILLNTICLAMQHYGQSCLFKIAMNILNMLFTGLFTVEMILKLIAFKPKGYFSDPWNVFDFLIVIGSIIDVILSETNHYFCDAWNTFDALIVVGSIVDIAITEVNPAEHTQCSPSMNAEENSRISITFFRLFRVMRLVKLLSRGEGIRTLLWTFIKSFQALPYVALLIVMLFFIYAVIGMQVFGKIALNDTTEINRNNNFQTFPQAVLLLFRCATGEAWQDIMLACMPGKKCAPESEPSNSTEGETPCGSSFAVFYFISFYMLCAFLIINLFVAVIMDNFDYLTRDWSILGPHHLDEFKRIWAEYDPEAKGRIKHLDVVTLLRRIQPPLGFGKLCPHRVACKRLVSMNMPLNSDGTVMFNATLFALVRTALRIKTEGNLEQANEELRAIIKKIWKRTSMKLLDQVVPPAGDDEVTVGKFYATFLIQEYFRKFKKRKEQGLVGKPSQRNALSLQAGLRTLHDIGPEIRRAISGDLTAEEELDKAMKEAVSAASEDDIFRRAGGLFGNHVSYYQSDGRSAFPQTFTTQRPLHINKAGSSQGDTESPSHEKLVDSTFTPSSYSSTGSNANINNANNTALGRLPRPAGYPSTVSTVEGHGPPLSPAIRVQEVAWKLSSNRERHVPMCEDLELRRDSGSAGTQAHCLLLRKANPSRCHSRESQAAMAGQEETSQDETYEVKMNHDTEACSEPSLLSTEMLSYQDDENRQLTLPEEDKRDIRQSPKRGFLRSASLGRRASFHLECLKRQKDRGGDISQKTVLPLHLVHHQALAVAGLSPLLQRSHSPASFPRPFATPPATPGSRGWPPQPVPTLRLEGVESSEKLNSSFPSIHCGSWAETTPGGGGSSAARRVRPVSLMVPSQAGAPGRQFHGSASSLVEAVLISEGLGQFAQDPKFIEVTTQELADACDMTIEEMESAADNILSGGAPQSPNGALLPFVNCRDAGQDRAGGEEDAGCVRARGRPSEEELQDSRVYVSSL
smiles,measurement,setting,value
CN(C)C(=O)C(CCN1CCC(O)(c2ccc(Cl)cc2)CC1)(c1ccccc1)c1ccccc1 [Loperamide],IC50,"Cav1.2 (ICa, ICaL)",4090 nM
same,IC50,Nav1.5 (INa),526 nM
